Measurements as given in publication PMC4013070, “The Imaging of Insulinomas Using a Radionuclide-Labelled Molecule of the GLP-1 Analogue Liraglutide: A New Application of Liraglutide” (PLoS ONE, 2014).

How the values were obtained:
[1] = in vivo; cited from earlier work
Description: This approach can be utilised for qualitative diagnoses, accurate staging, and evaluation of treatment efficacy. However, the detection rate of SSTR imaging for insulinoma is not high. […] This limited utility is because in tumours, among the five subtypes of SSTRs (SSTR1-SSTR5), radionucli ...

[2] = cited from earlier work
[3] = molecular target: GLP-1 receptors; parameters: method as in PMID 23652208; conditions: Rin-m5f insulinoma cells, earlier exendin-4 imaging study of the authors; cited from earlier work
[4] = In vitro stability in fetal bovine serum; format: in vitro ADME; conditions: 37°C, 0 h
[5] = tested on: INS-1 insulinoma xenograft; test: In vivo distribution of radioactivity across organs in nude mouse insulinoma model; parameters: species or system BALB/c nude mice; conditions: 90 min after injection of approx. 100 µCi, from %ID/g, mean ± SD, N = 3
Protocol: (§1) A total of 24 nude mice were each subcutaneously injected in the armpit of the right upper limb with 100 µl of a suspension of INS-1 cells (containing approximately 10^7 cells per 100 µl). The nude mice were reared under conventional sterile conditions and given 5% dextrose injections as drinking water (Shanghai Changzheng Fumin Jinshan Pharmaceutical, Shanghai, China). Their blood glucose levels were monitored every 2–3 days with a glucometer (Accu-Chek Integra integrated blood glucose meter, Roche, Berlin, Germany), and all measured blood glucose levels were at least 3 mmol/L.
Six nude mice each received a 100 µl injection containing approximately 100 µCi of ^125I-liraglutide. At 90 min and 360 min after this injection, 3 mice were sacrificed by cervical dislocation. First, blood was collected from the heart; next, isolated various organs and tissues, including the heart, lungs, liver, stomach, kidneys, spleen, small intestine, and pancreas, as well as muscle tissue and the tumour; the isolated samples were then placed into tubes that were impervious to γ radiation and weighed. For each tube, the radioactivity in counts per minute was then measured by a γ counter. The results were presented in terms of %ID/g (the percentage of the total injected dose of radioactivity per gram of tissue). Histograms of %ID/g for various organs at the 90 min and 360 min time points were plotted.

[6] = tested on: INS-1 insulinoma xenograft; test: In vivo blocking experiment with unlabelled liraglutide (biodistribution); parameters: species or system BALB/c nude mice; conditions: 100 µg unlabelled liraglutide i.v. 30 min before approx. 100 µCi tracer, 90 min, p<0.05, N = 3
Protocol: as §1
In this experiment, 100 µl of liraglutide solution containing 100 µg of unlabelled liraglutide, was injected into the tail veins of each of 3 nude mice with insulinoma. Half an hour later, 100 µl of ^125I-liraglutide solution containing approximately 100 µCi of ^125I-liraglutide was injected into the tail vein of each mouse. To create an unblocked experimental group that corresponded with this blocked group, 100 µl of ^125I-liraglutide solution containing approximately 100 µCi of ^125I-liraglutide was injected into the tail veins of each of 3 more nude mice with insulinoma. These six nude mice with insulinoma were sacrificed by cervical dislocation at 90 min after the ^125I-liraglutide injection. First, blood was collected from the heart and various organs and tissues were isolated; the isolated samples were then placed into tubes that were impervious to γ radiation and weighed. For each tube, the radioactivity in counts per minute was then measured by a γ counter. The results were presented in terms of %ID/g. A histogram of %ID/g for various organs at the 90 min time point in the blocked and unblocked groups was plotted.

Glucagon-like peptide-1 [GLP-1]
serum half-life [1]: less than 2 min

CCCCCCCCCCCCCCCC(=O)N[C@@H](CCC(=O)NCCCC[C@H](NC(=O)[C@H](C)NC(=O)[C@H](C)NC(=O)[C@H](CCC(N)=O)NC(=O)CNC(=O)[C@H](CCC(=O)O)NC(=O)[C@H](CC(C)C)NC(=O)[C@H](Cc1ccc(O)cc1)NC(=O)[C@H](CO)NC(=O)[C@H](CO)NC(=O)[C@@H](NC(=O)[C@H](CC(=O)O)NC(=O)[C@H](CO)NC(=O)[C@@H](NC(=O)[C@H](Cc1ccccc1)NC(=O)[C@@H](NC(=O)CNC(=O)[C@H](CCC(=O)O)NC(=O)[C@H](C)NC(=O)[C@@H](N)Cc1cnc[nH]1)[C@@H](C)O)[C@@H](C)O)C(C)C)C(=O)N[C@@H](CCC(=O)O)C(=O)N[C@@H](Cc1ccccc1)C(=O)N[C@H](C(=O)N[C@@H](C)C(=O)N[C@@H](Cc1c[nH]c2ccccc12)C(=O)N[C@@H](CC(C)C)C(=O)N[C@H](C(=O)N[C@@H](CCCNC(=N)N)C(=O)NCC(=O)N[C@@H](CCCNC(=N)N)C(=O)NCC(=O)O)C(C)C)[C@@H](C)CC)C(=O)O [liraglutide]
in vivo half-life [2]: up to 13 h

Exendin-4
IC50 [3]: 0.35 to 2.81 nM
Kd [3]: 56.6 nM

CCCCCCCCCCCCCCCC(=O)N[C@@H](CCC(=O)NCCCC[C@H](NC(=O)[C@H](C)NC(=O)[C@H](C)NC(=O)[C@H](CCC(N)=O)NC(=O)CNC(=O)[C@H](CCC(=O)O)NC(=O)[C@H](CC(C)C)NC(=O)[C@H](Cc1ccc(O)c(I)c1)NC(=O)[C@H](CO)NC(=O)[C@H](CO)NC(=O)[C@@H](NC(=O)[C@H](CC(=O)O)NC(=O)[C@H](CO)NC(=O)[C@@H](NC(=O)[C@H](Cc1ccccc1)NC(=O)[C@@H](NC(=O)CNC(=O)[C@H](CCC(=O)O)NC(=O)[C@H](C)NC(=O)[C@@H](N)Cc1c[nH]cn1)[C@@H](C)O)[C@@H](C)O)C(C)C)C(=O)N[C@@H](CCC(=O)O)C(=O)N[C@@H](Cc1ccccc1)C(=O)N[C@H](C(=O)N[C@@H](C)C(=O)N[C@@H](Cc1c[nH]c2ccccc12)C(=O)N[C@@H](CC(C)C)C(=O)N[C@H](C(=O)N[C@@H](CCCNC(=N)N)C(=O)NCC(=O)N[C@@H](CCCNC(=N)N)C(=O)NCC(=O)O)C(C)C)[C@@H](C)CC)C(=O)O [125I-liraglutide]
intact peptide in fetal bovine serum [4]: 92.9%
T/NT ratio, tumour to muscle tissue [5]: 4.83±1.30
T/NT ratio, tumour to pancreatic tissue [5]: 2.73±0.80
radioactivity (%ID/g) of the lungs after blocking [6]: significantly decreased
radioactivity (%ID/g) of the pancreas after blocking [6]: significantly decreased
radioactivity (%ID/g) of the tumour after blocking [6]: significantly reduced
